Data as given in US12103926B2, “Compounds for treating huntington's disease” (PTC THERAPEUTICS, INC., priority 2018, dated 2024).

What follows are compounds tested on Endogenous Huntingtin Protein (assay: Endogenous Huntingtin Protein Assay (ELISA-based MSD electrochemiluminescence assay)). Settings: MW1 (expanded polyglutamine) or MAB2166 capture antibody; lysates.
Format: cell-based
Experimental: Compounds of Formula (I) were tested using the Meso Scale Discovery (MSD) Assay provided in International Application No. PCT/US2016/066042, filed on Dec. 11, 2016 and claiming priority to United States Provisional Application U.S. 62/265,652 filed on Dec. 10, 2015, the entire contents of which are incorporated herein by reference.
The Endogenous Huntingtin Protein assay used in Example 1 was developed using the ELISA-based MSD electrochemiluminescence assay platform.
Endogenous Huntingtin Protein Assay
Meso Scale Discovery (MSD) 96-well or 384-well plates were coated overnight at 4° C. with MW1 (expanded polyglutamine) or MAB2166 monoclonal antibody (for capture) at a concentration of 1 μg/mL in PBS (30 μL per well). Plates were then washed three times with 300 μL wash buffer (0.05% Tween-20 in PBS) and blocked (100 μL blocking buffer; 5% BSA in PBS) for 4-5 hours at room temperature with rotational shaking and then washed three times with wash buffer.
Samples (25 μL) were transferred to the antibody-coated MSD plate and incubated overnight at 4° C. After removal of the lysates, the plate was washed three times with wash buffer, and 25 μL of #5656S (Cell signaling; rabbit monoclonal) secondary antibody (diluted to 0.25 μg/mL in 0.05% Tween-20 in blocking buffer) was added to each well and incubated with shaking for 1 Hour at room temperature. Following incubation with the secondary antibody, the wells were rinsed with wash buffer after which 25 μL of goat anti-rabbit SULFO TAG secondary detection antibody (required aspect of the MSD system) (diluted to 0.25 μg/mL in 0.05% Tween-20 in blocking buffer) was added to each well and incubated with shaking for 1 hour at room temperature. After rinsing three times with wash buffer, 150 μL of read buffer T with surfactant (MSD) were added to each empty well, and the plate was imaged on a SI 6000 imager (MSD) according to manufacturers' instructions provided for 96- or 384-well plates.

| SMILES | IC50 |
| --- | --- |
| CN(c1cnc(-c2cc(Cl)c(-c3cn[nH]c3)cc2F)cn1)C1CC(C)(C)NC(C)(C)C1 [Cpd 23, 5-[5-chloro-2-fluoro-4-(1H-pyrazol-4-yl)phenyl]-N-methyl-N-(2,2,6,6-tetramethylpiperidin-4-yl)pyrazin-2-amine] | 100 to 500 nM |
| CC(C)(C)NC1CCN(c2cnc(-c3ccc(-c4c[nH]nc4F)cc3O)cn2)C1 (centres unmarked) [Cpd 65, 2-{5-[3-(tert-butylamino)pyrrolidin-1-yl]pyrazin-2-yl}-5-(3-fluoro-1H-pyrazol-4-yl)phenol] | < 100 nM |
| CC1(C)CC(Nc2cnc(-c3ccc(-n4ccnc4)cc3O)cn2)CC(C)(C)N1 [Cpd 50, 5-(1H-imidazol-1-yl)-2-{5-[(2,2,6,6-tetramethylpiperidin-4-yl)amino]pyrazin-2-yl}phenol] | 100 to 500 nM |
| CN(c1cnc(-c2ccc(-c3cn[nH]c3)cc2O)cn1)C1CCNCC1 [Cpd 20, 2-{5-[methyl(piperidin-4-yl)amino]pyrazin-2-yl}-5-(1H-pyrazol-4-yl)phenol] | 500 to 1000 nM |
| CN(c1cnc(-c2ccc(-c3ccn(C)c(=O)c3)cc2O)cn1)C1CC(C)(C)NC(C)(C)C1 [Cpd 18, 4-(3-hydroxy-4-{5-[methyl(2,2,6,6-tetramethylpiperidin-4-yl)amino]pyrazin-2-yl}phenyl)-1-methylpyridin-2(1H)-one] | 1000 to 3000 nM |
